# Results taken from the supplement of paper PMC11061612.
# Key:
# Test in all cases: Bliss excess, mean over the matrix (fraction); higher = more synergy
# [1] = test system: AGS (Gastric Carcinoma)
# In short: (§1)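 After 24 hours at 37°C and 5% CO2 in 1536-well plates, cells in DMEM/F12 or RPMI plus 10% FBS received two-drug dose matrices for 72 hours. Viability came from CellTiter-Glo 2.0 luminescence and was scaled as inhibition, anchored at 0 by vehicle wells and at 1 by blank wells. Combination Emax is taken as the second-highest inhibition in the matrix, and Bliss excess as the observed combination effect less EA + EB − EA·EB, with EA and EB the single-agent effects.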
# [2] = test system: B-CPAP (Thyroid Gland Carcinoma)
# In short: as §1
# [3] = test system: CCRF-CEM (T-Lymphoblastic Leukemia)
# In short: as §1
# [4] = test system: COLO-205 (Colorectal Carcinoma)
# In short: as §1
# [5] = test system: CaR-1 (Colorectal Carcinoma)
# In short: as §1
# [6] = test system: Calu-3 (Lung Adenocarcinoma)
# In short: as §1
# [7] = test system: Daoy (Other Solid Carcinomas)
# In short: as §1
# [8] = test system: EC-GI-10 (Esophageal Squamous Cell Carcinoma)
# In short: as §1
# [9] = test system: HCC-78 (Lung Adenocarcinoma)
# In short: as §1
# [10] = test system: HO-1-N-1 (Oral Cavity Carcinoma)
# In short: as §1
# [11] = test system: HOS (Osteosarcoma)
# In short: as §1
# [12] = test system: HT-1376 (Bladder Carcinoma)
# In short: as §1
# [13] = test system: KP-1N (Pancreatic Carcinoma)
# In short: as §1
# [14] = test system: KYSE-520 (Esophageal Squamous Cell Carcinoma)
# In short: as §1
# [15] = test system: LNCaP-Clone-FGC (Prostate Carcinoma)
# In short: as §1
# [16] = test system: MFE-296 (Endometrial Carcinoma)
# In short: as §1
# [17] = test system: Ramos-2G6-4C10 (Burkitt's Lymphoma)
# In short: as §1
# [18] = test system: SNU-5 (Gastric Carcinoma)
# In short: as §1
# [19] = test system: TCCSUP (Bladder Carcinoma)
# In short: as §1
# [20] = test system: TE-9 (Esophageal Squamous Cell Carcinoma)
# In short: as §1
Structure (SMILES),Bliss excess [1],Bliss excess [2],Bliss excess [3],Bliss excess [4],Bliss excess [5],Bliss excess [6],Bliss excess [7],Bliss excess [8],Bliss excess [9],Bliss excess [10],Bliss excess [11],Bliss excess [12],Bliss excess [13],Bliss excess [14],Bliss excess [15],Bliss excess [16],Bliss excess [17],Bliss excess [18],Bliss excess [19],Bliss excess [20]
"C[C@@H](c1ccc2nccn2c1)n1nnc2ncc(-c3cnn(C)c3)nc21 [Savolitinib] + Cc1c2c(nn1C)CSCc1cc(n(C)n1)CSc1cc(c3ccccc3c1)OCCCc1c(C(=O)O)n(C)c3c-2c(Cl)ccc13 [AZD5991] (first compound max 1 µM, 7x7, partner max 1 µM)",-0.0855,-0.0221,0.0088,-0.0386,-0.0725,-0.021,-0.0141,-0.07,-0.0366,-0.0373,-0.0188,-0.0206,-0.0637,-0.0615,-0.0148,-0.0228,0.0002,0.0188,-0.0262,-0.0683
"Cn1cnc2c(F)c(Nc3ccc(Br)cc3Cl)c(C(=O)NOCCO)cc21 [Selumetinib] + C=CCn1c(=O)c2cnc(Nc3ccc(N4CCN(C)CC4)cc3)nc2n1-c1cccc(C(C)(C)O)n1 [AZD1775] (first compound max 10 µM, partner max 1 µM)",0.0064,-0.0704,0.0378,-0.0256,-0.0218,-0.0405,-0.0443,-0.0424,-0.0293,-0.0206,-0.0713,-0.0093,-0.0298,0.0054,-0.15,-0.059,-0.0956,-0.0239,-0.0432,-0.0343
"Cn1cnc2c(F)c(Nc3ccc(Br)cc3Cl)c(C(=O)NOCCO)cc21 [Selumetinib] + CC(C)n1c(=O)n(C)c2cnc3cc(F)c(-c4ccc(OCCCN5CCCCC5)nc4)cc3c21 [AZD1390] (first compound max 10 µM, 7x7, partner max 0.3 µM)",-0.0446,-0.0222,-0.0131,-0.0209,-0.041,-0.023,-0.021,-0.0359,-0.0313,0.0053,-0.0404,-0.0416,-0.0532,-0.0115,-0.0381,-0.0529,-0.0211,0.0649,-0.0588,-0.0228
"Cn1cnc2c(F)c(Nc3ccc(Br)cc3Cl)c(C(=O)NOCCO)cc21 [Selumetinib] + CCN(CCO)CCCOc1ccc2c(Nc3cc(CC(=O)Nc4cccc(F)c4)[nH]n3)ncnc2c1 [AZD2811] (first compound max 10 µM, 7x7, partner max 1 µM)",0.11,0.001,0.0007,-0.0081,0.0301,-0.0353,0.012,0.0087,-0.0124,-0.0692,-0.0192,-0.0488,-0.0461,0.0547,0.0253,-0.0309,-0.0321,0.0274,-0.0822,-0.0347
"Cn1cnc2c(F)c(Nc3ccc(Br)cc3Cl)c(C(=O)NOCCO)cc21 [Selumetinib] + C[C@@H]1COCCN1C2=NC(=NC(=C2)C3(CC3)[S@](=N)(=O)C)C4=C5C=CNC5=NC=C4 [AZD6738] (first compound max 10 µM, 7x7, partner max 10 µM)",0.0281,-0.0026,-0.0108,0.0526,-0.069,-0.0295,-0.0087,0.0623,-0.0254,-0.0475,-0.0613,-0.021,-0.0061,0.0227,-0.0018,-0.0543,-0.0714,0.0524,-0.0141,-0.0063
"CC(=O)Nc1cccc(-n2c(=O)n(C3CC3)c(=O)c3c(Nc4ccc(I)cc4F)n(C)c(=O)c(C)c32)c1 [Trametinib] + Cc1nc(-c2cn3c(n2)-c2ccc(-c4cnn(C(C)(C)C(N)=O)c4)cc2OCC3)n(C(C)C)n1 [Taselisib] (first compound max 1 µM, 7x7, partner max 10 µM)",0.122,0.141,0.0951,0.0229,0.0783,0.162,0.0146,0.112,0.0913,0.268,0.0604,0.0546,0.101,0.0534,-0.0056,0.0323,-0.0053,0.141,0.0896,0.073
"CC1(C)CCC(CN2CCN(c3ccc(C(=O)NS(=O)(=O)c4ccc(NCC5CCOCC5)c([N+](=O)[O-])c4)c(Oc4cnc5[nH]ccc5c4)c3)CC2)=C(c2ccc(Cl)cc2)C1 [Venetoclax] + C1CN(CCC1(C(=O)N[C@@H](CCO)C2=CC=C(C=C2)Cl)N)C3=NC=NC4=C3C=CN4 [Capivasertib] (first compound max 1 µM, 7x7, partner max 3 µM)",-0.0406,-0.0312,0.0042,-0.0423,-0.0045,-0.0116,0.0117,-0.0488,-0.0331,-0.0176,-0.0243,-0.0621,-0.0193,-0.0575,-0.0464,-0.0063,0.0177,-0.0485,-0.0196,-0.0114
